Assay results published in article PMC6353801, “Enhanced Anti-diabetic Effect of Berberine Combined With Timosaponin B2 in Goto-Kakizaki Rats, Associated With Increased Variety and Exposure of Effective Substances Through Intestinal Absorption” (Frontiers in Pharmacology, 2019).
Like-named read-outs stand apart in the source and are kept apart here.

Assays:
Caco-2 cells = assay: Transport in Caco-2 cells; type: in vitro ADME, human; conditions: Caco-2, no inhibitor; Papp (BL−AP)/Papp (AP−BL)
Protocol: (§1) The culture medium was changed every other day for the first 7 days and then daily for the next 14 days. […] Prior to the transport experiments, the cell monolayers were washed three times with HBSS at 37°C. […] At the same time, the corresponding opposite side was filled with medium as the receiving chamber. After incubation for 30, 60, 90, and 120 min, 250-μl aliquots of the medium was taken from the receiving chamber at each time point, and prepared for analysis by HPLC–MS/MS. […] where (ΔQ/Δt) is the linear slope of the drug concentration in the receptor chamber over time, A represents the surface area of the membrane (1.12 cm^2), and C0 is the initial concentration of drug in the donor chamber. The efflux ratio (ERpermeability) for BL to AP and AP to BL transport was defined by the following equation: […] where Papp (BL–AP) and Papp (AP–BL) are the apparent permeability of drugs from the basolateral (BL) to apical (AP) and AP to BL sides of the monolayer, respectively.

[1] = Transport in Caco-2 cells; type: in vitro ADME, human; conditions: human; for efflux ratio at 120 min: Caco-2, Caco-2, no inhibitor, Papp (BL−AP)/Papp (AP−BL); for Papp A→B at 120 min / Papp B→A at 120 min: Caco-2, no inhibitor, digoxin 10 μM, TB-2 5 μM, BBR 10 μM
Protocol: as §1

[2] = ref Cai et al., 2008; cited from earlier work
GK rats [3] = assay: Oral glucose tolerance test (OGTT) in GK rats on day 28; type: in vivo, rat; conditions: after 4 weeks of treatment, glucose 2 g/kg oral
Protocol: (§2) Four-week-old male GK rats were fed a high-fat diet, and age-matched non-diabetic Wistar rats were fed standard chow as the control group. Under these dietary conditions, blood glucose was estimated each week for 7 weeks in 12-h fasted rats using a portable glucometer (One Touch Sure Step Meter, Johnson & Johnson, United States) by drawing the blood from the tail vein. GK rats with fasting blood glucose levels (FBG) above 16.7 mM were considered as diabetic rats, and only uniformly diabetic rats were used in this study. […] All the drugs were suspended in 0.5% carboxymethylcellulose sodium (CMC-Na) solution for oral gavage (10 ml/kg) once per day (at 9:00) for 6 weeks. Simultaneously, the Wistar and vehicle groups received vehicle over the treatment period. Food consumption and body weight were measured every week throughout the experimental periods. Non-fasting blood glucose (NFBG) levels were determined by collecting blood samples from the tail vein (at 9:00), and FBG levels were determined after a 6-h fast (at 15:00) on days 0, 7, 14, 21, and 42. On day 28, an oral glucose tolerance test (OGTT) was performed after an overnight fast. […] On day 42, the rats were anesthetized with urethane (1.4 g/kg, dissolved in saline) after an overnight fast and were sacrificed to collect the liver, kidney, heart, and spleen. The organs were weighed after washing with saline and drying to calculate the organ coefficient, namely, the ratio between the weight of organs and the body in each rat.

[4] = male, Wistar, rat, in vivo
primary rat hepatocytes = assay: Hepatic metabolism in primary hepatocytes; conditions: BBR 1 μM, 3 h, ABT 1 mM, TB-2 0.1 to 30 μM
GK rats [5] = assay: NFBG and FBG levels in GK rats, 6-week oral treatment; type: in vivo, rat; conditions: during 6-week treatment, TB-2 33.3, BBR 66.7, TB-2+BBR 100, metformin 200 mg/kg/day
Protocol: as §2

[6] = Body weight, food intake, organ coefficients and side effects in GK rats; type: in vivo, rat
Protocol: as §2

in vivo [7] = conditions: male, Wistar, rat, po
[8] = male, Wistar, rat, in vivo; remark: listed apart in the source
[9] = PK in systemic plasma of GK rats after repeated oral administration (day 35); type: in vivo, rat; conditions: rat, in vivo
Protocol: Analyses were performed on a Shimadzu LCMS-8030 triple quadrupole system (Shimadzu Corp., Japan) equipped with an electrospray ionization source. Data processing was performed using Shimadzu LC–MS LabSolutions (version 5.42 SP4, Shimadzu, Japan). Chromatographic separation was carried out on a Waters CORTECS C18+ column (100 mm × 2.1 mm, 2.7 μm, Ireland) with a security guard C18+ column (5 mm × 2.1 mm, 2.7 μm, Ireland). […] The gradient elution was 85% B from 0 to 2.5 min, 85% B–83% B from 2.5 to 3.0 min, 83% B from 3.0 to 6.0 min, 83% B–40% B from 6.0 to 6.5 min, 40% B from 6.5 to 7.0 min, 40% B–85% B from 7.0 to 7.2 min, and 85% B from 7.2 to 12 min. […] The optimized precursor-to-product ion pairs (collision energy) were in the positive mode as follows: m/z 579.20–255.15 (28 V) for TB-2 (at 4.1 min) and timosaponin A3 (at 6.1 min) and 271.50–154.70 (25 V) for tolbutamide (IS, at 5.8 min). […] If the concentrations of the compounds were over the linear range, the relevant samples were diluted with blank matrix by a factor of 10. […] Four-week-old male GK rats were fed a high-fat diet, and age-matched non-diabetic Wistar rats were fed standard chow as the control group. Under these dietary conditions, blood glucose was estimated each week for 7 weeks in 12-h fasted rats using a portable glucometer (One Touch Sure Step Meter, Johnson & Johnson, United States) by drawing the blood from the tail vein. GK rats with fasting blood glucose levels (FBG) above 16.7 mM were considered as diabetic rats, and only uniformly diabetic rats were used in this study. […] All the drugs were suspended in 0.5% carboxymethylcellulose sodium (CMC-Na) solution for oral gavage (10 ml/kg) once per day (at 9:00) for 6 weeks. Simultaneously, the Wistar and vehicle groups received vehicle over the treatment period. Food consumption and body weight were measured every week throughout the experimental periods. Non-fasting blood glucose (NFBG) levels were determined by collecting blood samples from the tail vein (at 9:00), and FBG levels were determined after a 6-h fast (at 15:00) on days 0, 7, 14, 21, and 42. On day 28, an oral glucose tolerance test (OGTT) was performed after an overnight fast. […] On day 42, the rats were anesthetized with urethane (1.4 g/kg, dissolved in saline) after an overnight fast and were sacrificed to collect the liver, kidney, heart, and spleen. The organs were weighed after washing with saline and drying to calculate the organ coefficient, namely, the ratio between the weight of organs and the body in each rat. The liver samples were diluted with 3 volumes (0.5 g/1.5 ml) of saline and homogenized. The liver homogenates and plasma samples (100 μl) were precipitated with three volumes of acetonitrile (containing 10 μg/ml tolbutamide). […] Then, 100 μl of the original mobile phase was added, and the samples were vortexed for 5 min and centrifuged at 13,000 rpm at 4°C for 10 min. Finally, the supernatant was used for HPLC–QQQ–MS/MS analysis. A non-compartmental analysis was performed using WinNonlin software (Pharsight 6.2, Raleigh, NC, United States) to calculate the PK parameters. The significance of PK parameters in normal rats, generated by the sparse method in WinNonlin, was assessed with Welch’s unequal variances t-test. The significance of the other results was assessed using two-tailed Student’s t-tests. Statistical significance was defined as P < 0.05.

in vivo [10] = conditions: male, Wistar, rat, po; remark: listed apart in the source
[11] = read-out: ERpermeability (efflux ratio)
[12] = with BBR 10 μM (co-incubated), Caco-2, TB-2 5 μM in presence of BBR (10 μM), n = 3

## C[C@H]1O[C@@H](O[C@H]2[C@@H](O)C[C@H](O[C@H]3[C@@H](O)C[C@H](O[C@H]4CC[C@@]5(C)[C@H](CC[C@@H]6[C@@H]5C[C@@H](O)[C@]5(C)[C@@H](C7=CC(=O)OC7)CC[C@]65O)C4)O[C@@H]3C)O[C@@H]2C)C[C@H](O)[C@@H]1O [Digoxin, digoxin]
Caco-2 cells
  ERpermeability (efflux ratio): 138.8
[1]; [11]
  efflux ratio at 120 min: ~130
[1]; n = 3
  Papp A→B at 120 min: 0.191 ± 0.02 ×10⁻⁶ cm/s
  Papp B→A at 120 min: 26.5 ± 1.91 ×10⁻⁶ cm/s

## CC(CCC1(O)OC2CC3C4CCC5CC(OC6OC(CO)C(O)C(O)C6OC6OC(CO)C(O)C(O)C6O)CCC5(C)C4CCC3(C)C2C1C)COC1OC(CO)C(O)C(O)C1O (stereo not shown) [TB-2, timosaponin B2]
[2]
  bioavailability: 1.2%
[1]; [11]
  efflux ratio at 120 min: 1.1
[1]; Caco-2, with BBR 10 μM (co-incubated), Caco-2, TB-2 5 μM in presence of BBR (10 μM), read-out: ERpermeability (efflux ratio)
  efflux ratio at 120 min, 5 μM: 1
[1]; [12]
  Papp A→B at 120 min, 5 μM: 0.081 ± 0.035 ×10⁻⁶ cm/s
  Papp B→A at 120 min, 5 μM: 0.085 ± 0.035 ×10⁻⁶ cm/s
[1]; n = 3
  Papp A→B at 120 min: 0.057 ± 0.032 ×10⁻⁶ cm/s
  Papp B→A at 120 min: 0.061 ± 0.043 ×10⁻⁶ cm/s
GK rats [3]
  decrease in the AUC of blood glucose in OGTT vs vehicle: didn’t significantly decrease
[4]
  ERliver (liver extraction ratio): 77.8%
[4]; po, 33.3 mg/kg
  ERliver (liver extraction ratio): 80.6%
Primary rat hepatocytes
  effect on BBR metabolism and the generation of M2–M5: did not significantly affect
GK rats [5]
  FBG levels compared with the vehicle group (in words): no significant differences
  NFBG levels compared with the vehicle group (in words): no significant differences
[6]; 6-week oral treatment
  effect on body weight or food consumption vs vehicle: no effect
[6]; day 42
  effect on organ coefficients (liver and kidney) vs vehicle: limited
In vivo [7]; 33.3 mg/kg
  Tmax: 1 h
In vivo [7]; 100 mg/kg
  Tmax: 2 h
  half-life: 22.8 h
[8]
  improvement of levels on co-administration: 141–230%
[9]; male, GK, po, 33.3 mg/kg
  AUC: 100.4 ± 26.2 h ∗ ng/ml
  T1/2: 8.6 ± 1.8 h
  Tmax: 1.1 ± 0.3 h
[9]; male, GK, po, 33.3 mg/kg, AUC
  AUC: 77.5 ± 13.6 ng·h/mL
[9]; male, GK, po, 33.3 mg/kg, T1/2
  half-life: 14.3 ± 5.3 h
[9]; male, GK, po, 33.3 mg/kg, Tmax
  Tmax: 2.1 ± 0.6 h
[9]
  increase in AUC on combination vs single treatment: no significant improvement
  increase in Cmax on combination vs single treatment: no significant improvement
In vivo [10]; 33.3 mg/kg
  Tmax: 0.2 h
In vivo [10]; 100 mg/kg
  half-life: 23.2 h
  Tmax: 2 h
